In ChEMBL document CHEMBL3817764, “Pyrimidine-based antimalarials: design strategies and antiplasmodial effects” (Medchemcomm, 2016):

Tests used:
Plasmodium falciparum [1] = test: Antimalarial activity against chloroquine-resistant Plasmodium falciparum W2 assessed as plasmodial LDH activity; assay type: functional, organism-based
Plasmodium falciparum [2] = test: Antimalarial activity against chloroquine-sensitive Plasmodium falciparum D6 assessed as plasmodial LDH activity; assay type: functional, organism-based

SMILES: Fc1ccc(Nc2nccc(N3CCN(c4ccnc5cc(Cl)ccc45)CC3)n2)cc1
- IC50 (Plasmodium falciparum [1]): 130 nM
- IC50 (Plasmodium falciparum [2]): 130 nM

SMILES: OCCCCNc1nccc(NCCNc2ccnc3cc(Cl)ccc23)n1
- IC50 (Plasmodium falciparum [1]): 50 nM
- IC50 (Plasmodium falciparum [2]): 50 nM

SMILES: Clc1ccc2c(NCCNc3ccnc(N4CCCCC4)n3)ccnc2c1
- IC50 (Plasmodium falciparum [1]): 50 nM
- IC50 (Plasmodium falciparum [2]): 50 nM

SMILES: Cc1cc(NCCCNc2ccnc3cc(Cl)ccc23)nc(NCCCCCCO)n1
- IC50 (Plasmodium falciparum [1]): 50 nM
- IC50 (Plasmodium falciparum [2]): 50 nM

SMILES: CCN1CCN(c2nccc(NCCCNc3ccnc4cc(Cl)ccc34)n2)CC1
- IC50 (Plasmodium falciparum [1]): 50 nM
- IC50 (Plasmodium falciparum [2]): 50 nM

SMILES: OCCCNc1nccc(NCCCCNc2ccnc3cc(Cl)ccc23)n1
- IC50 (Plasmodium falciparum [1]): 50 nM
- IC50 (Plasmodium falciparum [2]): 50 nM

SMILES: CCN1CCN(c2nc(Cl)cc(NCCNc3ccnc4cc(Cl)ccc34)n2)CC1
- IC50 (Plasmodium falciparum [1]): 50 nM
- IC50 (Plasmodium falciparum [2]): 50 nM

SMILES: Cc1cc(NCCNc2ccnc3cc(Cl)ccc23)nc(NCCCCO)n1
- IC50 (Plasmodium falciparum [1]): 50 nM
- IC50 (Plasmodium falciparum [2]): 50 nM

SMILES: Cc1cc(NCCNc2ccnc3cc(Cl)ccc23)nc(NCCCO)n1
- IC50 (Plasmodium falciparum [1]): 50 nM
- IC50 (Plasmodium falciparum [2]): 50 nM

SMILES: Cc1cc(NCCCNc2ccnc3cc(Cl)ccc23)nc(NCCO)n1
- IC50 (Plasmodium falciparum [1]): 50 nM
- IC50 (Plasmodium falciparum [2]): 50 nM

SMILES: Cc1ccc(Nc2nc(C)cc(N3CCN(c4ccnc5cc(Cl)ccc45)CC3)n2)cc1
- IC50 (Plasmodium falciparum [1]): 130 nM
- IC50 (Plasmodium falciparum [2]): 130 nM

SMILES: Cc1cc(N2CCN(c3ccnc4cc(Cl)ccc34)CC2)nc(NCCCO)n1
- IC50 (Plasmodium falciparum [1]): 130 nM
- IC50 (Plasmodium falciparum [2]): 130 nM

SMILES: Cc1ccc(Nc2nccc(N3CCN(c4ccnc5cc(Cl)ccc45)CC3)n2)cc1
- IC50 (Plasmodium falciparum [1]): 130 nM
- IC50 (Plasmodium falciparum [2]): 130 nM

SMILES: Cc1cc(N2CCN(c3ccnc4cc(Cl)ccc34)CC2)nc(N2CCCC2)n1
- IC50 (Plasmodium falciparum [1]): 130 nM
- IC50 (Plasmodium falciparum [2]): 130 nM

SMILES: COc1cc(Nc2nccc(N3CCN(c4ccnc5cc(Cl)ccc45)CC3)n2)cc(OC)c1
- IC50 (Plasmodium falciparum [1]): 130 nM
- IC50 (Plasmodium falciparum [2]): 130 nM

SMILES: Clc1ccc2c(NCCCNc3cc(Cl)nc(N4CCCCC4)n3)ccnc2c1
- IC50 (Plasmodium falciparum [1]): 50 nM
- IC50 (Plasmodium falciparum [2]): 50 nM

SMILES: OCCCNc1nccc(N2CCN(c3ccnc4cc(Cl)ccc34)CC2)n1
- IC50 (Plasmodium falciparum [1]): 130 nM
- IC50 (Plasmodium falciparum [2]): 130 nM

SMILES: Clc1ccc2c(NCCCNc3cc(Cl)nc(N4CCOCC4)n3)ccnc2c1
- IC50 (Plasmodium falciparum [1]): 50 nM
- IC50 (Plasmodium falciparum [2]): 50 nM

SMILES: Cc1cc(NCCCCNc2ccnc3cc(Cl)ccc23)nc(NCCCCCO)n1
- IC50 (Plasmodium falciparum [1]): 50 nM
- IC50 (Plasmodium falciparum [2]): 50 nM

SMILES: CN1CCN(c2nccc(NCCNc3ccnc4cc(Cl)ccc34)n2)CC1
- IC50 (Plasmodium falciparum [1]): 50 nM
- IC50 (Plasmodium falciparum [2]): 50 nM

SMILES: Clc1ccc2c(N3CCN(c4ccnc(Nc5ccccc5)n4)CC3)ccnc2c1
- IC50 (Plasmodium falciparum [1]): 130 nM
- IC50 (Plasmodium falciparum [2]): 130 nM

SMILES: OCCCNc1nccc(NCCNc2ccnc3cc(Cl)ccc23)n1
- IC50 (Plasmodium falciparum [1]): 50 nM
- IC50 (Plasmodium falciparum [2]): 50 nM

SMILES: Clc1ccc2c(NCCNc3cc(Cl)nc(N4CCCCC4)n3)ccnc2c1
- IC50 (Plasmodium falciparum [1]): 50 nM
- IC50 (Plasmodium falciparum [2]): 50 nM

SMILES: Clc1ccc2c(NCCNc3cc(Cl)nc(N4CCOCC4)n3)ccnc2c1
- IC50 (Plasmodium falciparum [1]): 50 nM
- IC50 (Plasmodium falciparum [2]): 50 nM

SMILES: OCCCCCCNc1nccc(NCCNc2ccnc3cc(Cl)ccc23)n1
- IC50 (Plasmodium falciparum [1]): 50 nM
- IC50 (Plasmodium falciparum [2]): 50 nM

SMILES: Clc1ccc(Nc2nccc(N3CCN(c4ccnc5cc(Cl)ccc45)CC3)n2)cc1
- IC50 (Plasmodium falciparum [1]): 130 nM
- IC50 (Plasmodium falciparum [2]): 130 nM

SMILES: OCCCCCNc1nccc(NCCCCNc2ccnc3cc(Cl)ccc23)n1
- IC50 (Plasmodium falciparum [1]): 50 nM
- IC50 (Plasmodium falciparum [2]): 50 nM

SMILES: Cc1cc(NCCCCNc2ccnc3cc(Cl)ccc23)nc(NCCCCO)n1
- IC50 (Plasmodium falciparum [1]): 50 nM
- IC50 (Plasmodium falciparum [2]): 50 nM

SMILES: Cc1cc(NCCCNc2ccnc3cc(Cl)ccc23)nc(NCCCCO)n1
- IC50 (Plasmodium falciparum [1]): 50 nM
- IC50 (Plasmodium falciparum [2]): 50 nM

SMILES: CN1CCN(c2nc(Cl)cc(NCCCNc3ccnc4cc(Cl)ccc34)n2)CC1
- IC50 (Plasmodium falciparum [1]): 50 nM
- IC50 (Plasmodium falciparum [2]): 50 nM

SMILES: Cc1cc(N2CCN(c3ccnc4cc(Cl)ccc34)CC2)nc(Nc2ccc(F)cc2)n1
- IC50 (Plasmodium falciparum [1]): 130 nM
- IC50 (Plasmodium falciparum [2]): 130 nM

SMILES: CCN1CCN(c2nc(Cl)cc(NCCCNc3ccnc4cc(Cl)ccc34)n2)CC1
- IC50 (Plasmodium falciparum [1]): 50 nM
- IC50 (Plasmodium falciparum [2]): 50 nM

SMILES: Cc1cc(NCCCNc2ccnc3cc(Cl)ccc23)nc(NCCCCCO)n1
- IC50 (Plasmodium falciparum [1]): 50 nM
- IC50 (Plasmodium falciparum [2]): 50 nM

SMILES: Cc1cc(NCCCNc2ccnc3cc(Cl)ccc23)nc(NCCCO)n1
- IC50 (Plasmodium falciparum [1]): 50 nM
- IC50 (Plasmodium falciparum [2]): 50 nM

SMILES: Cc1cc(NCCNc2ccnc3cc(Cl)ccc23)nc(NCCO)n1
- IC50 (Plasmodium falciparum [1]): 50 nM
- IC50 (Plasmodium falciparum [2]): 50 nM

SMILES: COc1cc(Nc2nc(C)cc(N3CCN(c4ccnc5cc(Cl)ccc45)CC3)n2)cc(OC)c1
- IC50 (Plasmodium falciparum [1]): 130 nM
- IC50 (Plasmodium falciparum [2]): 130 nM

SMILES: CCN1CCN(c2nccc(NCCNc3ccnc4cc(Cl)ccc34)n2)CC1
- IC50 (Plasmodium falciparum [1]): 50 nM
- IC50 (Plasmodium falciparum [2]): 50 nM

SMILES: OCCCNc1nccc(NCCCNc2ccnc3cc(Cl)ccc23)n1
- IC50 (Plasmodium falciparum [1]): 50 nM
- IC50 (Plasmodium falciparum [2]): 50 nM

SMILES: Cc1cc(N2CCN(c3ccnc4cc(Cl)ccc34)CC2)nc(Cl)n1
- IC50 (Plasmodium falciparum [1]): 130 nM
- IC50 (Plasmodium falciparum [2]): 130 nM

SMILES: CN1CCN(c2nccc(NCCCNc3ccnc4cc(Cl)ccc34)n2)CC1
- IC50 (Plasmodium falciparum [1]): 50 nM
- IC50 (Plasmodium falciparum [2]): 50 nM

SMILES: Clc1ccc2c(N3CCN(c4ccnc(Nc5ccc(Br)cc5)n4)CC3)ccnc2c1
- IC50 (Plasmodium falciparum [1]): 130 nM
- IC50 (Plasmodium falciparum [2]): 130 nM

SMILES: OCCCCCCNc1nccc(NCCCCNc2ccnc3cc(Cl)ccc23)n1
- IC50 (Plasmodium falciparum [1]): 50 nM
- IC50 (Plasmodium falciparum [2]): 50 nM

SMILES: Cc1cc(N2CCN(c3ccnc4cc(Cl)ccc34)CC2)nc(Nc2ccc(Br)cc2)n1
- IC50 (Plasmodium falciparum [1]): 130 nM
- IC50 (Plasmodium falciparum [2]): 130 nM

SMILES: Clc1ccc2c(NCCCNc3ccnc(N4CCOCC4)n3)ccnc2c1
- IC50 (Plasmodium falciparum [1]): 50 nM
- IC50 (Plasmodium falciparum [2]): 50 nM

SMILES: Cc1cc(N2CCN(c3ccnc4cc(Cl)ccc34)CC2)nc(N2CCOCC2)n1
- IC50 (Plasmodium falciparum [1]): 130 nM
- IC50 (Plasmodium falciparum [2]): 130 nM

SMILES: Clc1ccc2c(NCCNc3cc(Cl)nc(Cl)n3)ccnc2c1
- IC50 (Plasmodium falciparum [1]): 50 nM
- IC50 (Plasmodium falciparum [2]): 50 nM

SMILES: CN1CCN(c2nc(Cl)cc(NCCNc3ccnc4cc(Cl)ccc34)n2)CC1
- IC50 (Plasmodium falciparum [1]): 50 nM
- IC50 (Plasmodium falciparum [2]): 50 nM

SMILES: Cc1cc(N2CCN(c3ccnc4cc(Cl)ccc34)CC2)nc(NC2CCCCC2)n1
- IC50 (Plasmodium falciparum [1]): 130 nM
- IC50 (Plasmodium falciparum [2]): 130 nM

SMILES: OCCNc1nccc(NCCCNc2ccnc3cc(Cl)ccc23)n1
- IC50 (Plasmodium falciparum [1]): 50 nM
- IC50 (Plasmodium falciparum [2]): 50 nM

SMILES: OCCNc1nccc(N2CCN(c3ccnc4cc(Cl)ccc34)CC2)n1
- IC50 (Plasmodium falciparum [1]): 130 nM
- IC50 (Plasmodium falciparum [2]): 130 nM

SMILES: Cc1cc(NCCCCNc2ccnc3cc(Cl)ccc23)nc(NCCO)n1
- IC50 (Plasmodium falciparum [1]): 50 nM
- IC50 (Plasmodium falciparum [2]): 50 nM

SMILES: Cc1cc(N2CCN(c3ccnc4cc(Cl)ccc34)CC2)nc(Nc2ccccc2)n1
- IC50 (Plasmodium falciparum [1]): 130 nM
- IC50 (Plasmodium falciparum [2]): 130 nM

SMILES: OCCCCCCNc1nccc(NCCCNc2ccnc3cc(Cl)ccc23)n1
- IC50 (Plasmodium falciparum [1]): 50 nM
- IC50 (Plasmodium falciparum [2]): 50 nM

SMILES: Clc1ccc2c(NCCNc3ccnc(Cl)n3)ccnc2c1
- IC50 (Plasmodium falciparum [1]): 50 nM
- IC50 (Plasmodium falciparum [2]): 50 nM

SMILES: COc1ccc(Nc2nc(C)cc(N3CCN(c4ccnc5cc(Cl)ccc45)CC3)n2)cc1
- IC50 (Plasmodium falciparum [1]): 130 nM
- IC50 (Plasmodium falciparum [2]): 130 nM

SMILES: OCCCCNc1nccc(NCCCCNc2ccnc3cc(Cl)ccc23)n1
- IC50 (Plasmodium falciparum [1]): 50 nM
- IC50 (Plasmodium falciparum [2]): 50 nM

SMILES: Cc1cc(N2CCN(c3ccnc4cc(Cl)ccc34)CC2)nc(N2CCNCC2)n1
- IC50 (Plasmodium falciparum [1]): 130 nM
- IC50 (Plasmodium falciparum [2]): 130 nM

SMILES: OCCCCNc1nccc(NCCCNc2ccnc3cc(Cl)ccc23)n1
- IC50 (Plasmodium falciparum [1]): 50 nM
- IC50 (Plasmodium falciparum [2]): 50 nM

SMILES: Cc1cc(N2CCN(c3ccnc4cc(Cl)ccc34)CC2)nc(NCCO)n1
- IC50 (Plasmodium falciparum [1]): 130 nM
- IC50 (Plasmodium falciparum [2]): 130 nM

SMILES: COc1ccc(Nc2nccc(N3CCN(c4ccnc5cc(Cl)ccc45)CC3)n2)cc1
- IC50 (Plasmodium falciparum [1]): 130 nM
- IC50 (Plasmodium falciparum [2]): 130 nM

SMILES: OCCCCCNc1nccc(NCCNc2ccnc3cc(Cl)ccc23)n1
- IC50 (Plasmodium falciparum [1]): 50 nM
- IC50 (Plasmodium falciparum [2]): 50 nM

SMILES: OCCCCCNc1nccc(NCCCNc2ccnc3cc(Cl)ccc23)n1
- IC50 (Plasmodium falciparum [1]): 50 nM
- IC50 (Plasmodium falciparum [2]): 50 nM

SMILES: OCCNc1nccc(NCCNc2ccnc3cc(Cl)ccc23)n1
- IC50 (Plasmodium falciparum [1]): 50 nM
- IC50 (Plasmodium falciparum [2]): 50 nM

SMILES: Clc1ccc2c(NCCCNc3ccnc(N4CCCCC4)n3)ccnc2c1
- IC50 (Plasmodium falciparum [1]): 50 nM
- IC50 (Plasmodium falciparum [2]): 50 nM
